Converted amounts (≈) assume the structure as drawn.
Experiments:
[1] = system: Klebsiella pneumoniae; assay: Potentiation of colistin-induced antimicrobial activity against Klebsiella pneumoniae 2210291 expressing mcr1 gene assessed as reduction in colistin MIC at 15 uM incubated for overnight duration by CLSI based method relative to colistin alone control; format: functional
[2] = system: Acinetobacter baumannii; assay: Potentiation of colistin-induced antimicrobial activity against Acinetobacter baumannii SM1536 assessed as colistin MIC at 30 uM incubated for overnight duration by CLSI based method (reference value: 2 ug/ml); format: functional
[3] = system: Escherichia coli; assay: Toxicity against Escherichia coli YD626 incubated for overnight duration by CLSI based method; format: organism-based; details: in vivo
[4] = system: Acinetobacter baumannii; assay: Potentiation of colistin-induced antimicrobial activity against multidrug resistant Acinetobacter baumannii BAA1605 assessed as minimum drug concentration needed to cause colsitin MIC of 0.125 ug/ml incubated for overnight duration by CLSI based method; format: functional
[5] = system: Klebsiella pneumoniae; assay: Potentiation of colistin-induced antimicrobial activity against multidrug resistant Klebsiella pneumoniae BAA2146 assessed as minimum drug concentration needed to cause colsitin MIC of 0.125 ug/ml incubated for overnight duration by CLSI based method; format: functional
[6] = system: Escherichia coli; assay: Potentiation of colistin-induced antimicrobial activity against Escherichia coli YD626 assessed as colistin MIC at 30 uM incubated for overnight duration by CLSI based method (reference value: 1 ug/ml); format: functional
[7] = system: Acinetobacter baumannii; assay: Potentiation of colistin-induced antimicrobial activity against Acinetobacter baumannii ATCC 17978 expressing mcr1 gene assessed as reduction in colistin MIC at 30 uM incubated for overnight duration by CLSI based method relative to colistin alone control; format: functional
[8] = system: Escherichia coli; assay: Potentiation of colistin-induced antimicrobial activity against Escherichia coli YD626 expressing mcr1 gene assessed as reduction in colistin MIC at 30 uM incubated for overnight duration by CLSI based method relative to colistin alone control; format: functional
[9] = system: Escherichia coli; assay: Potentiation of colistin-induced antimicrobial activity against Escherichia coli ATCC 25922 assessed as colistin MIC at 30 uM incubated for overnight duration by CLSI based method (reference value: […]); format: functional
[10] = system: Klebsiella pneumoniae; assay: Toxicity against Klebsiella pneumoniae 2210291 incubated for overnight duration by CLSI based method; format: organism-based; details: in vivo
[11] = system: Klebsiella pneumoniae; assay: Potentiation of colistin-induced antimicrobial activity against Klebsiella pneumoniae 2210291 assessed as colistin MIC at 30 uM incubated for overnight duration by CLSI based method (reference value: 1 ug/ml); format: functional
[12] = system: Acinetobacter baumannii; assay: Toxicity against Acinetobacter baumannii SM1536 incubated for overnight duration by CLSI based method; format: organism-based; details: in vivo
[13] = system: Escherichia coli; assay: Potentiation of colistin-induced antimicrobial activity against Escherichia coli YD626 assessed as reduction in colistin MIC at 30 uM incubated for overnight duration by CLSI based method relative to colistin alone control; format: functional
[14] = system: Acinetobacter baumannii; assay: Potentiation of colistin-induced antimicrobial activity against Acinetobacter baumannii ATCC 17978 expressing mcr1 gene assessed as colistin MIC at 30 uM incubated for overnight duration by CLSI based method (reference value: 16 ug/ml); format: functional
[15] = system: Escherichia coli; assay: Potentiation of colistin-induced antimicrobial activity against Escherichia coli ATCC 25922 assessed as reduction in colistin MIC at 30 uM incubated for overnight duration by CLSI based method relative to colistin alone control; format: functional
[16] = system: Escherichia coli; assay: Potentiation of colistin-induced antimicrobial activity against Escherichia coli YD626 expressing mcr1 gene assessed as colistin MIC at 30 uM incubated for overnight duration by CLSI based method (reference value: 4 ug/ml); format: functional
[17] = system: Acinetobacter baumannii; assay: Potentiation of colistin-induced antimicrobial activity against Acinetobacter baumannii SM1536 expressing mcr1 gene assessed as colistin MIC at 30 uM incubated for overnight duration by CLSI based method (reference value: 64 ug/ml); format: functional
[18] = system: Escherichia coli; assay: Toxicity against Escherichia coli ATCC 25922 incubated for overnight duration by CLSI based method; format: organism-based; details: in vivo
[19] = system: Acinetobacter baumannii; assay: Potentiation of colistin-induced antimicrobial activity against Acinetobacter baumannii ATCC 17978 expressing mcr1 gene assessed as reduction in colistin MIC at 15 uM incubated for overnight duration by CLSI based method relative to colistin alone control; format: functional
[20] = system: Acinetobacter baumannii; assay: Potentiation of colistin-induced antimicrobial activity against Acinetobacter baumannii SM1536 expressing mcr1 gene assessed as reduction in colistin MIC at 30 uM incubated for overnight duration by CLSI based method relative to colistin alone control; format: functional
[21] = system: Escherichia coli; assay: Potentiation of colistin-induced antimicrobial activity against Escherichia coli YD626 expressing mcr1 gene assessed as colistin MIC at 15 uM incubated for overnight duration by CLSI based method (reference value: 4 ug/ml); format: functional
[22] = system: Acinetobacter baumannii; assay: Toxicity against Acinetobacter baumannii ATCC 17978 incubated for overnight duration by CLSI based method; format: organism-based; details: in vivo
[23] = system: Klebsiella pneumoniae; assay: Potentiation of colistin-induced antimicrobial activity against Klebsiella pneumoniae 2210291 assessed as reduction in colistin MIC at 30 uM incubated for overnight duration by CLSI based method relative to colistin alone control; format: functional
[24] = system: Escherichia coli; assay: Potentiation of colistin-induced antimicrobial activity against Escherichia coli ATCC 25922 expressing mcr1 gene assessed as colistin MIC at 15 uM incubated for overnight duration by CLSI based method (reference value: 8 ug/ml); format: functional
[25] = system: Acinetobacter baumannii; assay: Potentiation of colistin-induced antimicrobial activity against multidrug resistant Acinetobacter baumannii 5075 assessed as minimum drug concentration needed to cause colsitin MIC of 0.125 ug/ml incubated for overnight duration by CLSI based method; format: functional
[26] = system: Klebsiella pneumoniae; assay: Potentiation of colistin-induced antimicrobial activity against Klebsiella pneumoniae 2210291 expressing mcr1 gene assessed as colistin MIC at 15 uM incubated for overnight duration by CLSI based method (reference value: 16 ug/ml); format: functional
[27] = system: Escherichia coli; assay: Potentiation of colistin-induced antimicrobial activity against Escherichia coli ATCC 25922 expressing mcr1 gene assessed as colistin MIC at 30 uM incubated for overnight duration by CLSI based method (reference value: 8 ug/ml); format: functional
[28] = system: Klebsiella pneumoniae; assay: Potentiation of colistin-induced antimicrobial activity against Klebsiella pneumoniae 2210291 expressing mcr1 gene assessed as reduction in colistin MIC at 30 uM incubated for overnight duration by CLSI based method relative to colistin alone control; format: functional
[29] = system: Acinetobacter baumannii; assay: Potentiation of colistin-induced antimicrobial activity against Acinetobacter baumannii ATCC 17978 assessed as reduction in colistin MIC at 30 uM incubated for overnight duration by CLSI based method relative to colistin alone control; format: functional
[30] = system: Acinetobacter baumannii; assay: Potentiation of colistin-induced antimicrobial activity against Acinetobacter baumannii ATCC 17978 expressing mcr1 gene assessed as colistin MIC at 15 uM incubated for overnight duration by CLSI based method (reference value: 16 ug/ml); format: functional
[31] = system: Klebsiella pneumoniae; assay: Toxicity against Klebsiella pneumoniae BAA2146 incubated for overnight duration by CLSI based method; format: organism-based; details: in vivo
[32] = system: Escherichia coli; assay: Potentiation of colistin-induced antimicrobial activity against Escherichia coli YD626 expressing mcr1 gene assessed as reduction in colistin MIC at 15 uM incubated for overnight duration by CLSI based method relative to colistin alone control; format: functional
[33] = system: Acinetobacter baumannii; assay: Potentiation of colistin-induced antimicrobial activity against Acinetobacter baumannii ATCC 17978 assessed as colistin MIC at 30 uM incubated for overnight duration by CLSI based method (reference value: 2 ug/ml); format: functional

| Compound | fold change (FC) [1] | MIC [2] [µg/mL] | MIC [3] [µM] | MIC [4] [µM] | MIC [5] [µM] | MIC [6] [µg/mL] | fold change (FC) [7] | fold change (FC) [8] | MIC [9] [µg/mL] | MIC [10] [µM] | MIC [11] [µg/mL] | MIC [12] [µM] | fold change (FC) [13] | MIC [14] [µg/mL] | fold change (FC) [15] | MIC [16] [µg/mL] | MIC [17] [µg/mL] | MIC [18] [µM] | fold change (FC) [19] | fold change (FC) [20] | further results |
| --- | --- | --- | --- | --- | --- | --- | --- | --- | --- | --- | --- | --- | --- | --- | --- | --- | --- | --- | --- | --- | --- |
| CCCCCc1ccc(C(=O)NCCn2cc(CCCCCc3cnc(N)n3Cc3ccc(CCCC)cc3)nn2)cc1 | 16 | < 0.00098 | > 200 | 5 | 10 | < 0.00049 | 32 | >2048 | < 0.00049 | > 200 | 0.016 | > 200 | >2048 | 0.5 | >2048 | < 0.002 | 2 | > 200 | 8 | 32 | MIC [21]: 0.063 µg/mL; MIC [22]: > 200 µM; fold change (FC) [23]: 64; MIC [24]: 0.5 µg/mL; MIC [25]: 10 µM; MIC [26]: 1 µg/mL; MIC [27]: 0.25 µg/mL; fold change (FC) [28]: 64; fold change (FC) [29]: >2048; MIC [30]: 2 µg/mL; MIC [31]: > 200 µM; fold change (FC) [32]: 64; MIC [33]: < 0.00098 µg/mL |
| CCCCCCc1ccc(-c2cn(C(C)C)c(N)n2)cc1 | 2 | 0.016 | 200 (≈ 57.1 µg/mL) | 25 | 20 | 0.00049 | 32 | 256 | 0.0039 | 200 (≈ 57.1 µg/mL) | 0.031 | 200 (≈ 57.1 µg/mL) | 2048 | 0.5 | 256 | 0.016 | 1 | 200 (≈ 57.1 µg/mL) | 4 | 64 | MIC [21]: 2 µg/mL; MIC [22]: 200 µM (≈ 57.1 µg/mL); fold change (FC) [23]: 64; MIC [24]: 8 µg/mL; MIC [25]: 20 µM; MIC [26]: 8 µg/mL; MIC [27]: 0.016 µg/mL; fold change (FC) [28]: 32; fold change (FC) [29]: 128; MIC [30]: 4 µg/mL; MIC [31]: > 200 µM; fold change (FC) [32]: 2; MIC [33]: 0.016 µg/mL |
| CCCCCCc1ccc(-c2cn(CC)c(N)n2)cc1 | 4 | 0.0078 | 200 (≈ 54.3 µg/mL) | 15 | 15 | 0.00049 | 32 | >2048 | 0.00098 | > 200 | 0.031 | 100 (≈ 27.1 µg/mL) | 2048 | 0.5 | 2048 | < 0.0019 | 0.25 | 200 (≈ 54.3 µg/mL) | 4 | 256 | MIC [21]: 0.5 µg/mL; MIC [22]: 100 µM (≈ 27.1 µg/mL); fold change (FC) [23]: 32; MIC [24]: 4 µg/mL; MIC [25]: 15 µM; MIC [26]: 4 µg/mL; MIC [27]: < 0.0039 µg/mL; fold change (FC) [28]: 128; fold change (FC) [29]: 512; MIC [30]: 4 µg/mL; MIC [31]: > 200 µM; fold change (FC) [32]: 8; MIC [33]: 0.0039 µg/mL |
